# Results as given in patent US8242145B2, “Cyclic diaryl ether compounds as antagonists of prostaglandin D2 receptors” (Panmira Pharmaceuticals, LLC, priority 2008, dated 2012).
# Tests used:
# [1] = target: T1, human DP1 receptor (Homo sapiens, UniProt Q13258); test: DP1 radioligand binding assay using [3H]BWA868C; settings: hDP1 binding
# T1 construct: tissue Biological Specialty Corporation; host or cells: human platelets, membranes
# T1 sequence (Q13258 1-359): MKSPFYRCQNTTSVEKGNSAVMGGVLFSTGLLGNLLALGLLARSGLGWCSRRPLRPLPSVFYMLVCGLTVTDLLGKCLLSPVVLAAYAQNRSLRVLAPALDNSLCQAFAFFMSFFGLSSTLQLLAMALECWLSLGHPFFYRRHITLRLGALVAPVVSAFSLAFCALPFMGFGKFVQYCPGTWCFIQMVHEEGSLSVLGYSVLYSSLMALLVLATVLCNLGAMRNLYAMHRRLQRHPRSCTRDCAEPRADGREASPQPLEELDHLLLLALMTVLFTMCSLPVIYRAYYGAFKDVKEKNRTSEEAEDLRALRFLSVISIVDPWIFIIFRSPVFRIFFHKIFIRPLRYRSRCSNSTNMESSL
# Summary of the method: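 Human platelet membranes (20 μg protein/well) incubated 60 min at room temperature with 2 nM [3H]BWA868C in 50 mM Hepes, 10 mM MnCl2, 1 mM EDTA, ±0.2% human serum albumin, pH 7.4. Bound label measured after filtration; nonspecific binding defined with 10 μM BW A868C. IC50 from titration curves.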
# [2] = target: T2, recombinant human CRTH2 receptor (Homo sapiens, UniProt Q9Y5Y4); test: GTPγS binding assay; format: biochemical; settings: +HSA; read-out: hDP2 GTPγS μM (+HSA)
# T2 construct: expressed in transfected cells
# T2 sequence (Q9Y5Y4 1-395): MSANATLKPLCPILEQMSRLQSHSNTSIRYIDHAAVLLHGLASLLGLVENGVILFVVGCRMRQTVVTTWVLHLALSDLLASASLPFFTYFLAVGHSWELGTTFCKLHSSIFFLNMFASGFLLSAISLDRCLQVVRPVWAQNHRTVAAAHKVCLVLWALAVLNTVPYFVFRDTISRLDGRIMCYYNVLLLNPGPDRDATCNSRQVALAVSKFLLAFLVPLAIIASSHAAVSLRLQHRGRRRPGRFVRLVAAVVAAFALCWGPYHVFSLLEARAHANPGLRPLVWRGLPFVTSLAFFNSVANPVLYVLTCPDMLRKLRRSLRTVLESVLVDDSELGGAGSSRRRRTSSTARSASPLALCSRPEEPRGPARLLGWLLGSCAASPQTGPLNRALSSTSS
# Experimental: The ability of a compound to inhibit binding of GTP to DP2 is assessed via a membrane GTPγS assay. CHO cells stably expressing the recombinant human CRTH2 receptor are resuspended in 10 mM Hepes, 7.4 containing 1 mM DTT, lysed and centrifuged at 75,000×g to pellet the membranes. The membranes are resuspended in 10 mM Hepes, 7.4 containing 1 mM DTT and 10% glycerol. Membranes (˜12.5 μg per well) are incubated in 96-well plates with 0.05 nM [^35S]-GTPγS, 80 nM PGD2, 5 μM GDP, and test compound in Assay Buffer (50 mM Hepes, pH 7.4, 100 mM NaCl, 5 mM MgCl2 and 0.2% human serum albumin) for 60 minutes at 30° C. The reactions are terminated by rapid filtration through Whatman GF/B glass fibre filter plates. The filter plates are washed 3 times with 1 ml cold Assay Buffer and dried. Scintillant is then added to the plates and the radioactivity retained on the filters is determined on a Packard TopCount (Perkin Elmer). Specific binding is determined as total radioactive binding minus non-specific binding in the absence of the ligand (80 nM PGD2). IC50s were determined using Graphpad prism analysis of drug titration curves.
# [3] = target: T3, human DP2 receptor (Homo sapiens, UniProt Q9Y5Y4); test: DP2/CRTH2 radioligand binding assay using [3H]PGD2; settings: hDP2 (CRTH2) binding assay
# T3 construct: expressed in transfected cells
# T3 sequence (Q9Y5Y4 1-395): T2 sequence (Q9Y5Y4 1-395)
# Summary of the method: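 HEK293 membranes with stable recombinant human DP2, incubated with 1 nM [3H]PGD2 and compound 60 min at room temperature in pH 7.4 HEPES/MnCl2/EDTA buffer, with or without 0.2% human serum albumin.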
Compound,IC50 [1] [µM],IC50 [2] [µM],IC50 [3] [µM]
"CS(=O)(=O)c1ccc(-c2ccc(Oc3cccc(CC(=O)O)c3)c(CN3CCOC3=O)c2)cc1 [Compound 1-85, {3-[4′-Methanesulfonyl-3-(2-oxo-oxazolidin-3-ylmethyl)-biphenyl-4-yloxy]-phenyl}-acetic acid]",> 1,0.3 to 1,< 0.3
"COc1ccc(CC(=O)O)cc1Oc1ccc(-c2ccccc2OC)cc1CN1C(=O)O[C@H](c2ccccc2)[C@@H]1C [Compound 1-37, {4-Methoxy-3-[2′-methoxy-3-((4S,5R)-4-methyl-2-oxo-5-phenyl-oxazolidin-3-ylmethyl)-biphenyl-4-yloxy]-phenyl}-acetic acid]",> 1,< 0.3,< 0.3
"O=C(O)Cc1cc(Oc2ccc(C(F)(F)F)cc2CN2CCOC2=O)ccc1-c1ccccc1 [Compound 1-13, {4-[2-(2-Oxo-oxazolidin-3-ylmethyl)-4-trifluoromethyl-phenoxy]-biphenyl-2-yl}-acetic acid]",< 0.3,0.3 to 1,< 0.3
COc1ccc(CC(=O)O)cc1Oc1ccc(Br)cc1CN1C(=O)O[C@@H](c2ccc(Cl)cc2)[C@H]1C [Compound 1-62],> 1,0.3 to 1,< 0.3
"O=C(O)Cc1cccc(Oc2ccc(C(F)(F)F)cc2CN2CCOC2=O)c1 [Compound 1-5, {3-[2-(2-Oxo-oxazolidin-3-ylmethyl)-4-trifluoromethyl-phenoxy]-phenyl}-acetic acid]",> 1,< 0.3,< 0.3
"COc1cccc(-c2ccc(Oc3cc(CC(=O)O)ccc3OC)c(CN3C(=O)O[C@H](c4ccccc4)[C@@H]3C)c2)c1 [Compound 1-38, {4-Methoxy-3-[3′-methoxy-3-((4S,5R)-4-methyl-2-oxo-5-phenyl-oxazolidin-3-ylmethyl)-biphenyl-4-yloxy]-phenyl}-acetic acid]",> 1,0.3 to 1,< 0.3
"COc1ccc(CC(=O)O)cc1Oc1ccc(-c2cn[nH]c2)cc1CN1C(=O)O[C@H](c2ccccc2)[C@@H]1C [Compound 1-42, {4-Methoxy-3-[2-((4S,5R)-4-methyl-2-oxo-5-phenyl-oxazolidin-3-ylmethyl)-4-(1H-pyrazol-4-yl)-phenoxy]-phenyl}-acetic acid]",> 1,< 0.3,< 0.3
"O=C(O)Cc1cccc(Oc2ccc(C(F)(F)F)cc2CN2C(=O)OC3c4ccccc4CC32)c1 (stereo not drawn) [Compound 2-7, {3-[2-(2-Oxo-4,8b-dihydro-3aH-indeno[2,1-d]oxazol-3-ylmethyl)-4-trifluoromethyl-phenoxy]-phenyl}-acetic acid]",> 1,< 0.3,< 0.3
"COc1ccc(CC(=O)O)cc1Oc1ccc(-c2cccnc2)cc1CN1C(=O)O[C@H](c2ccccc2)[C@@H]1C [Compound 1-40, {4-Methoxy-3-[2-((4S,5R)-4-methyl-2-oxo-5-phenyl-oxazolidin-3-ylmethyl)-4-pyridin-3-yl-phenoxy]-phenyl}-acetic acid]",> 1,< 0.3,< 0.3
"COc1ccc(CC(=O)O)cc1Oc1ccc(Cl)cc1CN1C(=O)O[C@H](c2ccccc2)[C@@H]1C [Compound 1-31, {3-[4-Chloro-2-((4S,5R)-4-methyl-2-oxo-5-phenyl-oxazolidin-3-ylmethyl)-phenoxy]-4-methoxy-phenyl}-acetic acid]",> 1,< 0.3,< 0.3
"C[C@@H]1[C@H](c2ccccc2)OC(=O)N1Cc1cc(C(F)(F)F)ccc1Oc1cc(CC(=O)O)ccc1-c1cnn(C)c1 [Compound 1-79, [3-[2-((4R,5S)-4-Methyl-2-oxo-5-phenyl-oxazolidin-3-ylmethyl)-4-trifluoromethyl-phenoxy]-4-(1-methyl-1H-pyrazol-4-yl)-phenyl]-acetic acid]",> 1,< 0.3,< 0.3
"COc1ccc(C(C)C(=O)O)cc1Oc1ccc(C(F)(F)F)cc1CN1C(=O)O[C@H](c2ccccc2)[C@@H]1C (stereo partly drawn) [Compound 1-44, 2-{4-Methoxy-3-[2-((4S,5R)-4-methyl-2-oxo-5-phenyl-oxazolidin-3-ylmethyl)-4-trifluoromethyl-phenoxy]-phenyl}-propionic acid]",> 1,0.3 to 1,< 0.3
"COc1ccc(CC(=O)O)cc1Oc1ccc(C(F)(F)F)cc1CN1CCOC1=O [Compound 1-9, {4-Methoxy-3-[2-(2-oxo-oxazolidin-3-ylmethyl)-4-trifluoromethyl-phenoxy]-phenyl}-acetic acid]",> 1,< 0.3,< 0.3

# Further lines, results first:
IC50 [1] [µM],IC50 [2] [µM],IC50 [3] [µM],Compound
> 1,> 1,< 0.3,"C[C@H]1[C@@H](c2ccccc2)OC(=O)N1Cc1cc(Br)ccc1Oc1cc(CC(=O)O)ccc1Cl [Compound 1-29, {3-[4-Bromo-2-((4S,5R)-4-methyl-2-oxo-5-phenyl-oxazolidin-3-ylmethyl)-phenoxy]-4-chloro-phenyl}-acetic acid]"
< 0.3,0.3 to 1,< 0.3,"C[C@H]1[C@@H](c2ccccc2)OC(=O)N1Cc1cc(Br)ccc1Oc1cccc(CC(=O)O)c1 [Compound 1-15, {3-[4-Bromo-2-((4S,5R)-4-methyl-2-oxo-5-phenyl-oxazolidin-3-ylmethyl)-phenoxy]-phenyl}-acetic acid]"
0.3 to 1,> 1,< 0.3,"O=C(O)Cc1cccc(Oc2ccc(Br)cc2CN2C[C@H](c3ccccc3)OC2=O)c1 [Compound 1-48, {3-[4-Bromo-2-((S)-2-oxo-5-phenyl-oxazolidin-3-ylmethyl)-phenoxy]-phenyl}-acetic acid]"
< 0.3,> 1,0.3 to 1,"C[C@H]1[C@@H](c2ccccc2)OC(=O)N1Cc1cc(Br)ccc1Oc1ccc(Cl)c(CC(=O)O)c1 [Compound 1-24, {5-[4-Bromo-2-((4S,5R)-4-methyl-2-oxo-5-phenyl-oxazolidin-3-ylmethyl)-phenoxy]-2-chloro-phenyl}-acetic acid]"
< 0.3,< 0.3,< 0.3,"C[C@H]1[C@@H](c2ccccc2)OC(=O)N1Cc1cc(Br)ccc1Oc1cc(F)cc(CC(=O)O)c1 [Compound 1-26, {3-[4-Bromo-2-((4S,5R)-4-methyl-2-oxo-5-phenyl-oxazolidin-3-ylmethyl)-phenoxy]-5-fluoro-phenyl}-acetic acid]"
> 1,< 0.3,< 0.3,"COc1ccc(CC(=O)O)cc1Oc1ccc(Br)cc1CN1C(=O)O[C@@H](c2ccccc2)[C@H]1C [Compound 1-60, {3-[4-Bromo-2-((4R,5S)-4-methyl-2-oxo-5-phenyl-oxazolidin-3-ylmethyl)-phenoxy]-4-methoxy-phenyl}-acetic acid]"
< 0.3,> 1,< 0.3,"C[C@H]1[C@@H](c2ccc(Cl)cc2)OC(=O)N1Cc1cc(Br)ccc1Oc1cccc(CC(=O)O)c1 [Compound 1-16, (3-{4-Bromo-2-[(4S,5R)-5-(4-chloro-phenyl)-4-methyl-2-oxo-oxazolidin-3-ylmethyl]-phenoxy}-phenyl)-acetic acid]"
0.3 to 1,> 1,< 0.3,"O=C(O)Cc1cccc(Oc2ccc(Br)cc2CN2CC(c3ccc(Cl)cc3)CC2=O)c1 (stereo not drawn) [Compound 3-2, (3-{4-Bromo-2-[4-(4-chloro-phenyl)-2-oxo-pyrrolidin-1-ylmethyl]-phenoxy}-phenyl)-acetic acid]"
